Test results reported in paper PMC7377239, “Cardiovascular Effects of Polychlorinated Biphenyls and Their Major Metabolites” (Environmental Health Perspectives, 2020).
Like-named read-outs stand apart in the source and are kept apart here.

Tested on: iCell cardiomyocytes (human iPSC-derived cardiomyocytes)
Assay: Intracellular Ca2+ flux / beating parameters in iCell cardiomyocytes (FLIPR tetra), 90 min or 24 h
Assay type: cell-based
Settings: Homo sapiens, Cardiomyocyte, 0.00 µM = 100.00; for activity at 0.1 µM: 0.10 µM
Procedure, shortened: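 PODs were defined as the concentration crossing one SD of the vehicle-control means (0.5% DMSO) on four-parameter logistic fits of Ca2+ trace metrics (peak height, frequency, peak-spacing CV, decay/rise ratio). Traces came from 100 s, 8 Hz FLIPR reads at 37 °C on calcium-dye-loaded iCell cardiomyocytes. Before reading, cells were treated for 90 min or 24 h from 5× chemical plates spanning 0.05–500 µM, in triplicate.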

[1] = 1.5 h, read-out: cm.amp.avg.90min
[2] = 1.5 h, read-out: cm.amp.cv.90min
[3] = 1.5 h, read-out: cm.decay.rise.90min
[4] = 1.5 h, read-out: cm.spacing.cv.90min
[5] = 24 h, read-out: cm.amp.avg.24hrs
[6] = 24 h, read-out: cm.amp.cv.24hrs
[7] = 24 h, read-out: cm.decay.rise.24hrs
[8] = 24 h, read-out: cm.spacing.cv.24hrs

Oc1cc(Cl)cc(-c2cccc(Cl)c2)c1 [5-OH PCB 11]
activity at 0.01 µM [1]: 101%
activity at 0.01 µM [2]: 105%
activity at 0.01 µM (1.5 h, read-out: cm.bpm.90min): 97.8%
activity at 0.01 µM [3]: 102%
activity at 0.01 µM [4]: 101%
activity at 0.1 µM [1]: 102%
activity at 0.1 µM [2]: 103%
activity at 0.1 µM (1.5 h, read-out: cm.bpm.90min): 100%
activity at 0.1 µM [3]: 98.1%
activity at 0.1 µM [4]: 107%
activity at 1 µM [1]: 104%
activity at 1 µM [2]: 101%
activity at 1 µM (1.5 h, read-out: cm.bpm.90min): 102%
activity at 1 µM [3]: 98.3%
activity at 1 µM [4]: 99.1%
activity at 10 µM [1]: 94.2%
activity at 10 µM [2]: 105%
activity at 10 µM (1.5 h, read-out: cm.bpm.90min): 137%
activity at 10 µM [3]: 92%
activity at 10 µM [4]: 106%
activity at 100 µM [1]: 0%
activity at 100 µM [2]: 0%
activity at 100 µM (1.5 h, read-out: cm.bpm.90min): 0%
activity at 100 µM [3]: 0%
activity at 100 µM [4]: 0%
activity at 0.01 µM [5]: 128%
activity at 0.01 µM [6]: 95.9%
activity at 0.01 µM (24 h, read-out: cm.bpm.24hrs): 104%
activity at 0.01 µM [7]: 94.3%
activity at 0.01 µM [8]: 112%
activity at 0.1 µM [5]: 123%
activity at 0.1 µM [6]: 81.7%
activity at 0.1 µM (24 h, read-out: cm.bpm.24hrs): 97.4%
activity at 0.1 µM [7]: 98.8%
activity at 0.1 µM [8]: 113%
activity at 1 µM [5]: 151%
activity at 1 µM [6]: 71%
activity at 1 µM (24 h, read-out: cm.bpm.24hrs): 91.7%
activity at 1 µM [7]: 100%
activity at 1 µM [8]: 89.5%
activity at 10 µM [5]: 126%
activity at 10 µM [6]: 83.9%
activity at 10 µM (24 h, read-out: cm.bpm.24hrs): 114%
activity at 10 µM [7]: 104%
activity at 10 µM [8]: 101%
activity at 100 µM [5]: 0%
activity at 100 µM [6]: 0%
activity at 100 µM (24 h, read-out: cm.bpm.24hrs): 0%
activity at 100 µM [7]: 0%
activity at 100 µM [8]: 0%

Oc1ccc(-c2cccc(Cl)c2)cc1Cl [4-OH PCB11]
activity at 0.01 µM [1]: 107%
activity at 0.01 µM [2]: 101%
activity at 0.01 µM (1.5 h, read-out: cm.bpm.90min): 107%
activity at 0.01 µM [3]: 99.5%
activity at 0.01 µM [4]: 111%
activity at 0.1 µM [1]: 96%
activity at 0.1 µM [2]: 97.9%
activity at 0.1 µM (1.5 h, read-out: cm.bpm.90min): 102%
activity at 0.1 µM [3]: 94.9%
activity at 0.1 µM [4]: 90.9%
activity at 1 µM [1]: 103%
activity at 1 µM [2]: 91.8%
activity at 1 µM (1.5 h, read-out: cm.bpm.90min): 99.1%
activity at 1 µM [3]: 96.5%
activity at 1 µM [4]: 95.9%
activity at 10 µM [1]: 89.2%
activity at 10 µM [2]: 99%
activity at 10 µM (1.5 h, read-out: cm.bpm.90min): 104%
activity at 10 µM [3]: 94.9%
activity at 10 µM [4]: 104%
activity at 100 µM [1]: 0%
activity at 100 µM [2]: 0%
activity at 100 µM (1.5 h, read-out: cm.bpm.90min): 0%
activity at 100 µM [3]: 0%
activity at 100 µM [4]: 0%
activity at 0.01 µM [5]: 93.8%
activity at 0.01 µM [6]: 28.6%
activity at 0.01 µM (24 h, read-out: cm.bpm.24hrs): 46.8%
activity at 0.01 µM [7]: 48.9%
activity at 0.01 µM [8]: 46.2%
activity at 0.1 µM [5]: 110%
activity at 0.1 µM [6]: 104%
activity at 0.1 µM (24 h, read-out: cm.bpm.24hrs): 92.6%
activity at 0.1 µM [7]: 109%
activity at 0.1 µM [8]: 104%
activity at 1 µM [5]: 92.2%
activity at 1 µM [6]: 98.4%
activity at 1 µM (24 h, read-out: cm.bpm.24hrs): 89.7%
activity at 1 µM [7]: 99.3%
activity at 1 µM [8]: 89.5%
activity at 10 µM [5]: 135%
activity at 10 µM [6]: 67.1%
activity at 10 µM (24 h, read-out: cm.bpm.24hrs): 93.6%
activity at 10 µM [7]: 106%
activity at 10 µM [8]: 91.5%
activity at 100 µM [5]: 0%
activity at 100 µM [6]: 0%
activity at 100 µM (24 h, read-out: cm.bpm.24hrs): 0%
activity at 100 µM [7]: 0%
activity at 100 µM [8]: 0%
